Test results reported in paper PMC5291709, “Structure of the active form of human origin recognition complex and its ATPase motor module” (eLife, 2017).
Substitutions are numbered along the chain they refer to.

Key:
[1] = molecular target: T1, HsORC motor module (HsORC1/4/5) (Homo sapiens, UniProt O43913+O43929+Q13415, Q13415:D620A); test: radiolabelled ATPase assay, TLC; assay type: biochemical; settings: 50 mM Hepes-NaOH pH 7.5, 200 mM KCl, 5 mM MgCl2, 5 mM DTT, 37 C, 12.5-200 uM ATP, 10 uM complex; [gamma-32P]ATP tracer; ORC1/4 interface; Walker-B mutant
T1 construct: gene ORC1; ORC1 471-861 (BAH domain removed), ORC4 full-length 1-436, ORC5 1-284 (WHD removed); Sf9 insect cells, two-Strep-SumoStar tag on ORC1 cleaved; heterotrimer
T1 sequence (Q13415 471-861 D620A): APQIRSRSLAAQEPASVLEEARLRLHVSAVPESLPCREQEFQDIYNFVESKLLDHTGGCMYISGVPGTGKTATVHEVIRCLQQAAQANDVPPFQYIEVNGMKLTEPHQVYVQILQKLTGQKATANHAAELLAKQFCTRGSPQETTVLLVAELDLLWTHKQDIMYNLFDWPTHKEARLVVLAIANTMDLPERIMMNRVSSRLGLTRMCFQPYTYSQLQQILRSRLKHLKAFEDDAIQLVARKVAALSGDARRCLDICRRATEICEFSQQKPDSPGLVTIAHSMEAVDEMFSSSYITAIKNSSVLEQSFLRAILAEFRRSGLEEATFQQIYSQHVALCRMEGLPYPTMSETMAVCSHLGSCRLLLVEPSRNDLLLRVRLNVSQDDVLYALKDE
T1 sequence (O43929 1-436): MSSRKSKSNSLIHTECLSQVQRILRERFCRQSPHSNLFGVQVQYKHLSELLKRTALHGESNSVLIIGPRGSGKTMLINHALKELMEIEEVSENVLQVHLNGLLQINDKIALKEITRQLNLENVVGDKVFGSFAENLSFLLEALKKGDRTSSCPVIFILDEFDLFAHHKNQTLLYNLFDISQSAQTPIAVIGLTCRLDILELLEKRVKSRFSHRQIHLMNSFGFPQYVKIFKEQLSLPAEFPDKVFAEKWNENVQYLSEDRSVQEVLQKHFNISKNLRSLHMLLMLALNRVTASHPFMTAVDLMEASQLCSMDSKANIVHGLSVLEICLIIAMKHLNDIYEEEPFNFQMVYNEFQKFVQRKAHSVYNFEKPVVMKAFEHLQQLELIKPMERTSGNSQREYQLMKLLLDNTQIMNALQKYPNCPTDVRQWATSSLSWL
T1 sequence (O43913 1-284): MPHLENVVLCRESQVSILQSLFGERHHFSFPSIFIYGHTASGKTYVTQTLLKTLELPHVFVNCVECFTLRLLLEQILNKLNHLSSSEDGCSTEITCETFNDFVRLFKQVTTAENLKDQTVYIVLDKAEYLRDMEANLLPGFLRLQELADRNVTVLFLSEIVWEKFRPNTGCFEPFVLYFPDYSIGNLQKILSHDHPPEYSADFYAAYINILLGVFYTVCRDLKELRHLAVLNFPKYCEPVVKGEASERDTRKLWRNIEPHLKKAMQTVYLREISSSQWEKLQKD

[2] = molecular target: T2, HsORC motor module (HsORC1/4/5) (Homo sapiens, UniProt O43913+O43929+Q13415, O43929:Y174C); test: radiolabelled ATPase assay, TLC, Michaelis-Menten fit; assay type: biochemical; settings: 50 mM Hepes-NaOH pH 7.5, 200 mM KCl, 5 mM MgCl2, 5 mM DTT, 37 C, 12.5-200 uM ATP, 10 uM complex; [gamma-32P]ATP tracer; ORC1/4 interface; Meier-Gorlin Syndrome mutant
T2 construct: gene ORC1; ORC1 471-861 (BAH domain removed), ORC4 full-length 1-436, ORC5 1-284 (WHD removed); Sf9 insect cells, two-Strep-SumoStar tag on ORC1 cleaved; heterotrimer
T2 sequence (Q13415 471-861): T1 sequence (Q13415 471-861 D620A) with A150D
T2 sequence (O43929 1-436 Y174C): T1 sequence (O43929 1-436) with Y174C
T2 sequence (O43913 1-284): T1 sequence (O43913 1-284)

HsORC1-5 = molecular target: T3, HsORC1-5 (Homo sapiens, UniProt O43913+O43929+Q13415, Q13415:R720Q); test: radiolabelled ATPase assay, TLC; assay type: biochemical; settings: 50 mM Hepes-NaOH pH 7.5, 200 mM KCl, 5 mM MgCl2, 5 mM DTT, 37 C, 12.5-200 uM ATP, 10 uM complex; [gamma-32P]ATP tracer; ORC1/4 interface; Meier-Gorlin Syndrome mutant
T3 construct: gene ORC1; heteropentamer without ORC6; Sf9 insect cells; with Origin recognition complex subunit 5; Origin recognition complex subunit 2; Origin recognition complex subunit 3
T3 sequence (Q13415 471-861 R720Q, one chain of several): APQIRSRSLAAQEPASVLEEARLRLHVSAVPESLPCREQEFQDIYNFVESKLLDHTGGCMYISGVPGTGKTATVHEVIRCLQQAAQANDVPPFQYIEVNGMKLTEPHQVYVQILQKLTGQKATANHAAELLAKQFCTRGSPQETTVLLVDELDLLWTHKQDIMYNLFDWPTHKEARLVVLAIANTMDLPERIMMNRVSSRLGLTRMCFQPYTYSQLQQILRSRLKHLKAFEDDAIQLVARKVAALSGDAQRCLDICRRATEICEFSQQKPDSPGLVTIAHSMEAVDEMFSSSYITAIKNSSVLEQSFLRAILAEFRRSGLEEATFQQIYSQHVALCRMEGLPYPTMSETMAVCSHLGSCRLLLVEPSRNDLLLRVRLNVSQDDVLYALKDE
T3 sequence (O43913 whole entry, one chain of several): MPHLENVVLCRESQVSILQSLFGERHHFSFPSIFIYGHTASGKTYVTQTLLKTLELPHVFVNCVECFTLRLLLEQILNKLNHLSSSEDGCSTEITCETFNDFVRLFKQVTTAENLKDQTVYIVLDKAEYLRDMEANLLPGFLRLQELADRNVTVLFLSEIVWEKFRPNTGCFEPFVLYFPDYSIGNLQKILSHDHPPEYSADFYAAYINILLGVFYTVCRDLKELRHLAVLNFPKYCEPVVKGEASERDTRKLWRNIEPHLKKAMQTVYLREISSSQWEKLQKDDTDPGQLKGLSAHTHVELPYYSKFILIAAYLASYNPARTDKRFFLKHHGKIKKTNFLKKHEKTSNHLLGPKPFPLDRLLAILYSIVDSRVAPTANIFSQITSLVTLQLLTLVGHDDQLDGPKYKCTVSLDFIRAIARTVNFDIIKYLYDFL
T3 sequence (Q13416 whole entry partner, one chain of several): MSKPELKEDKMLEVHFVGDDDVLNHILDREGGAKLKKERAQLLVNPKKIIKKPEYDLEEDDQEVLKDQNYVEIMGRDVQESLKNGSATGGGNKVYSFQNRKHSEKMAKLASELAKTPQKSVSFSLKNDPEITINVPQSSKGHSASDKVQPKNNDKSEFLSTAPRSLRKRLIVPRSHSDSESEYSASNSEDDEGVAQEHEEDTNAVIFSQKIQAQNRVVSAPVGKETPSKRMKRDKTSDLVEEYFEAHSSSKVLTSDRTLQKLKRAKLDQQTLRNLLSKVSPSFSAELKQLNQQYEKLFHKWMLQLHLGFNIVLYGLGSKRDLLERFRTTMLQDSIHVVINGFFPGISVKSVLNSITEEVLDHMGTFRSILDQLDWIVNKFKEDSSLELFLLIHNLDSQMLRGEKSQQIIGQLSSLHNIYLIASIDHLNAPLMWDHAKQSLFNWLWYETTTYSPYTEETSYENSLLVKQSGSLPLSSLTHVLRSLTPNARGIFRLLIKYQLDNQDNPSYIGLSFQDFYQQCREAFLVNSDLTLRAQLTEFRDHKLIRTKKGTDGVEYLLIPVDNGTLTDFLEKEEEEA
T3 sequence (Q9UBD5 whole entry partner, one chain of several): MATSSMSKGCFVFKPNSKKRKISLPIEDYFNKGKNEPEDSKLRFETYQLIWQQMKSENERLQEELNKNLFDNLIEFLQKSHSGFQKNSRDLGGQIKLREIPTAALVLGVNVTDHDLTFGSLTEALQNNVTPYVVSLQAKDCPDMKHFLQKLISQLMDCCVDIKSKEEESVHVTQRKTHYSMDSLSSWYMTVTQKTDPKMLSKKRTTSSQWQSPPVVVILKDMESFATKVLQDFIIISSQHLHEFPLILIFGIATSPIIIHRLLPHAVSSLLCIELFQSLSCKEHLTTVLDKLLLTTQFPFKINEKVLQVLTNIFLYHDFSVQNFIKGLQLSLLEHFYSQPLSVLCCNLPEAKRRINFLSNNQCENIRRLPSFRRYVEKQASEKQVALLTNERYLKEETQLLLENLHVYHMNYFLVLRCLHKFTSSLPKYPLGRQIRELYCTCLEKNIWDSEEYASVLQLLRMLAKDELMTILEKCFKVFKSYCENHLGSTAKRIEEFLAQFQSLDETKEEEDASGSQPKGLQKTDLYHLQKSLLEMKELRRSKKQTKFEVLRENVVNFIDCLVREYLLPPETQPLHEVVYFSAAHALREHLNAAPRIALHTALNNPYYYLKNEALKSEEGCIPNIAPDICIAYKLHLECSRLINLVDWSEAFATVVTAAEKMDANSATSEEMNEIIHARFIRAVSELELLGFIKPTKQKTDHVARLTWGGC

[3] = molecular target: T4, HsORC motor module (HsORC1/4/5) (Homo sapiens, UniProt O43913+O43929+Q13415, Q13415:R720Q); test: radiolabelled ATPase assay, TLC; assay type: biochemical; settings: 50 mM Hepes-NaOH pH 7.5, 200 mM KCl, 5 mM MgCl2, 5 mM DTT, 37 C, 12.5-200 uM ATP, 10 uM complex; [gamma-32P]ATP tracer; ORC1/4 interface; Meier-Gorlin Syndrome mutant (sensor-2 trigger)
T4 construct: gene ORC1; ORC1 471-861 (BAH domain removed), ORC4 full-length 1-436, ORC5 1-284 (WHD removed); Sf9 insect cells, two-Strep-SumoStar tag on ORC1 cleaved; heterotrimer
T4 sequence (Q13415 471-861 R720Q): T1 sequence (Q13415 471-861 D620A) with A150D, R250Q
T4 sequence (O43929 1-436): T1 sequence (O43929 1-436)
T4 sequence (O43913 1-284): T1 sequence (O43913 1-284)

[4] = molecular target: T5, HsORC motor module (HsORC1/4/5) (Homo sapiens, UniProt O43913+O43929+Q13415); test: X-ray crystal structure, […] A; assay type: binding; settings: unhydrolysed ATP at the ORC1/ORC4 and ORC4/ORC5 interfaces and on ORC5; Mg2+
T5 construct: gene ORC1; ORC1 471-861 (BAH domain removed), ORC4 full-length 1-436, ORC5 1-284 (WHD removed); Sf9 insect cells, two-Strep-SumoStar tag on ORC1 cleaved; heterotrimer
T5 sequence (Q13415 471-861): T1 sequence (Q13415 471-861 D620A) with A150D
T5 sequence (O43929 1-436): T1 sequence (O43929 1-436)
T5 sequence (O43913 1-284): T1 sequence (O43913 1-284)

[5] = molecular target: T6, HsORC motor module (HsORC1/4/5) (Homo sapiens, UniProt O43913+O43929+Q13415, O43929:D159A/Q13415:D620A); test: radiolabelled ATPase assay, TLC; assay type: biochemical; settings: 50 mM Hepes-NaOH pH 7.5, 200 mM KCl, 5 mM MgCl2, 5 mM DTT, 37 C, 12.5-200 uM ATP, 10 uM complex; [gamma-32P]ATP tracer; ORC1/4 interface; double Walker-B mutant
T6 construct: gene ORC1; ORC1 471-861 (BAH domain removed), ORC4 full-length 1-436, ORC5 1-284 (WHD removed); Sf9 insect cells, two-Strep-SumoStar tag on ORC1 cleaved; heterotrimer
T6 sequence (Q13415 471-861 D620A): T1 sequence (Q13415 471-861 D620A)
T6 sequence (O43929 1-436 D159A): T1 sequence (O43929 1-436) with D159A
T6 sequence (O43913 1-284): T1 sequence (O43913 1-284)

SMILES: Nc1ncnc2c1ncn2[C@@H]1O[C@H](COP(=O)(O)OP(=O)(O)OP(=O)(O)O)[C@@H](O)[C@H]1O [ATP]
- radiolabelled ATPase assay, TLC [1]: Disrupting the ORC1 Walker-B motif (ORC1 D620A) effectively abolished ATPase activity
- ATPase activity [2]: renders the motor module hyperactive for ATPase activity
- radiolabelled ATPase assay, TLC (HsORC1-5): the ORC1 MGS mutation R720Q all show very little activity
- radiolabelled ATPase assay, TLC [3]: ORC1-R720Q abolished ATPase activity of the motor module
- X-ray crystal structure, 3.4 A [4]: The HsORC motor module crystallized with ATP, and the nucleotides can be clearly seen
- radiolabelled ATPase assay, TLC [5]: A double mutant of the Walker-B motif of both ORC1 and ORC4 also abolished activity
